#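 Tested at 5 concentrations; 48 h exposure; 96-well plates; endpoints linearly interpolated, else capped at highest concentration. TGI: concentration producing complete growth inhibition.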
# Key:
# Assay in all cases: inhibition of tumour cell growth, NCI panel, 48 h
# [1] = test system: 786-0 renal
# [2] = test system: A498 renal
# [3] = test system: A549 NSCLC
# [4] = test system: ACHN renal
# [5] = test system: BT-549 breast
# [6] = test system: CAKI-1 renal
# [7] = test system: CCRF-CEM leukemia
# [8] = test system: COLO 205 colon
# [9] = test system: DU-145 prostate
# [10] = test system: EKVX NSCLC
# [11] = test system: HCC-2998 colon
# [12] = test system: HCT-116 colon
# [13] = test system: HCT-15 colon
# [14] = test system: HL-60(TB) leukemia
# [15] = test system: HOP-62 NSCLC
# [16] = test system: HOP-92 NSCLC
# [17] = test system: HS 578T breast
# [18] = test system: HT29 colon
# [19] = test system: IGROV1 ovarian
# [20] = test system: K-562 leukemia
# [21] = test system: KM12 colon
# [22] = test system: M14 melanoma
# [23] = test system: MALME-3M melanoma
# [24] = test system: MCF7 breast
# [25] = test system: MDA-MB-231 breast
# [26] = test system: MDA-MB-435
# [27] = test system: MDA-N
# [28] = test system: MOLT-4 leukemia
# [29] = test system: NCI-H226 lung
# [30] = test system: NCI-H23 lung
# [31] = test system: NCI-H460 lung
# [32] = test system: NCI-H522 lung
# [33] = test system: NCI/ADR-RES ovarian
# [34] = test system: OVCAR-4 ovarian
# [35] = test system: OVCAR-5 ovarian
# [36] = test system: OVCAR-8 ovarian
# [37] = test system: PC-3 prostate
# [38] = test system: RPMI-8226 leukemia
# [39] = test system: RXF 393 renal
# [40] = test system: SF-268 CNS
# [41] = test system: SF-295 CNS
# [42] = test system: SF-539 CNS
# [43] = test system: SK-MEL-2 melanoma
# [44] = test system: SK-MEL-28 melanoma
# [45] = test system: SK-MEL-5 melanoma
# [46] = test system: SK-OV-3 ovarian
# [47] = test system: SN12C renal
# [48] = test system: SNB-19 CNS
# [49] = test system: SNB-75 CNS
# [50] = test system: SR leukemia
# [51] = test system: SW-620 colon
# [52] = test system: T-47D breast
# [53] = test system: TK-10 renal
# [54] = test system: U251 CNS
# [55] = test system: UACC-257 melanoma
# [56] = test system: UACC-62 melanoma
# [57] = test system: UO-31 renal
# [58] = test system: LOX IMVI melanoma
# [59] = test system: OVCAR-3 ovarian
compound,measurement,setting,value
O=C(CCc1cc(O)ccc1O)OCCc1ccccc1,TGI,[1],24.5 µM
same,TGI,[2],> 100 µM
same,TGI,[3],> 100 µM
same,TGI,[4],18.4 µM
same,TGI,[5],26.6 µM
same,TGI,[6],27.2 µM
same,TGI,[7],1.94 µM
same,TGI,[8],22.6 µM
same,TGI,[9],41.2 µM
same,TGI,[10],61.9 µM
same,TGI,[11],> 80.7 µM
same,TGI,[12],27.3 µM
same,TGI,[13],27.2 µM
same,TGI,[14],5.92 µM
same,TGI,[15],> 100 µM
same,TGI,[16],13 µM
same,TGI,[17],67.7 µM
same,TGI,[18],> 100 µM
same,TGI,[19],22.3 µM
same,TGI,[20],30.9 µM
same,TGI,[21],> 80.6 µM
same,TGI,[22],> 61.6 µM
same,TGI,[23],23.5 µM
same,TGI,[24],57.3 µM
same,TGI,[25],42.7 µM
same,TGI,[26],24.5 µM
same,TGI,[27],26.9 µM
same,TGI,[28],> 21 µM
same,TGI,[29],> 76.3 µM
same,TGI,[30],> 90.8 µM
same,TGI,[31],> 100 µM
same,TGI,[32],1.78 µM
same,TGI,[33],> 100 µM
same,TGI,[34],32.5 µM
same,TGI,[35],> 52.1 µM
same,TGI,[36],> 57.6 µM
same,TGI,[37],18.5 µM
same,TGI,[38],> 23.2 µM
same,TGI,[39],25.9 µM
same,TGI,[40],> 50.5 µM
same,TGI,[41],> 100 µM
same,TGI,[42],14.9 µM
same,TGI,[43],> 100 µM
same,TGI,[44],78.7 µM
same,TGI,[45],> 55.6 µM
same,TGI,[46],> 100 µM
same,TGI,[47],44.9 µM
same,TGI,[48],> 100 µM
same,TGI,[49],> 100 µM
same,TGI,[50],> 100 µM
same,TGI,[51],42.2 µM
same,TGI,[52],64.8 µM
same,TGI,[53],27.8 µM
same,TGI,[54],29.1 µM
same,TGI,[55],28.9 µM
same,TGI,[56],33.9 µM
same,TGI,[57],18.7 µM
O=C1NC(=O)C(c2c[nH]c3ccccc23)=C1c1cn(C(c2ccccc2)(c2ccccc2)c2ccccc2)cn1,TGI,[1],22.3 µM
same,TGI,[2],18.3 µM
same,TGI,[3],12.8 µM
same,TGI,[4],26.6 µM
same,TGI,[5],27.2 µM
same,TGI,[6],> 100 µM
same,TGI,[7],17.4 µM
same,TGI,[8],15 µM
same,TGI,[9],63.5 µM
same,TGI,[10],19.4 µM
same,TGI,[11],16 µM
same,TGI,[12],13.1 µM
same,TGI,[13],14.9 µM
same,TGI,[14],20.4 µM
same,TGI,[16],21.9 µM
same,TGI,[17],68.2 µM
same,TGI,[18],13.3 µM
same,TGI,[19],26.2 µM
same,TGI,[20],28.7 µM
same,TGI,[21],13.5 µM
same,TGI,[58],22.2 µM
same,TGI,[22],16.3 µM
same,TGI,[23],23.2 µM
same,TGI,[24],17.7 µM
same,TGI,[25],25.7 µM
same,TGI,[26],12.9 µM
same,TGI,[27],17.9 µM
same,TGI,[28],7.39 µM
same,TGI,[29],19.9 µM
same,TGI,[30],30.8 µM
same,TGI,[31],14.6 µM
same,TGI,[32],22.9 µM
same,TGI,[33],22 µM
same,TGI,[59],19.6 µM
same,TGI,[34],17.5 µM
same,TGI,[35],23.1 µM
same,TGI,[36],28.2 µM
same,TGI,[37],7.24 µM
same,TGI,[38],10.4 µM
same,TGI,[39],36.1 µM
same,TGI,[40],33.2 µM
same,TGI,[41],19.8 µM
same,TGI,[42],35.8 µM
same,TGI,[43],25.6 µM
same,TGI,[44],44.9 µM
same,TGI,[45],20.8 µM
same,TGI,[46],57 µM
same,TGI,[47],20.3 µM
same,TGI,[48],65.3 µM
same,TGI,[49],22.1 µM
same,TGI,[50],6.78 µM
same,TGI,[51],30 µM
same,TGI,[52],23.7 µM
same,TGI,[53],36.5 µM
same,TGI,[54],15.3 µM
same,TGI,[55],26.6 µM
same,TGI,[56],30.1 µM

# Reference: PubChem BioAssay (NCI)
